Results published in patent US7067254B2, “Diagnosis and treatment of inflammation and hyperactive immune conditions” (Board of Regents, The University of Texas System, priority 2001, dated 2006).

Tests used:
[1] = Inflammatory skin responses to locally administered ATP; format: in vivo, mouse
bone marrow-derived DC [2] = assay: ATP-induced IL-6 secretion by bone marrow-derived DC (ELISA); format: cell-based, mouse
Description: (§1) FIGS. 6A, 6B, & 6C. P2Y receptor desensitization in CD39^−/− DC. […] (FIG. 6C), CD39^−/− or CD39^+/+ DC were pre-treated with apyrase or buffer alone and then examined for ATP-mediated activation responses. Data shown are the means±s.d. (n=3) of cell viability (left), IL-6 production (middle), and LY uptake (right). Statistically, significant differences are indicated by asterisks (** P<0.01).
(§2) Measurement of ATP responsiveness.

bone marrow-derived DC [3] = assay: ATP-induced pore formation in bone marrow-derived DC (lucifer yellow uptake); format: cell-based, mouse; settings: 3 mM ATP, 15 min
Description: as §1, §2

bone marrow-derived DC [4] = assay: ATP-mediated cytolysis of bone marrow-derived DC (cell viability, 7-AAD staining); format: cell-based, mouse
Description: as §1, §2

Pam 212 keratinocytes [5] = assay: LDH release from Pam 212 keratinocytes (CytoTox 96 assay kit); format: cell-based, mouse
Protocol: (§3) FIGS. 3A, 3B, & 3C. […] (FIG. 3A), Pam 212 keratinocytes were treated with croton oil (CO), benzalkonium chloride (BAC), or ethyl phenylpropiolate (EPP) at the indicated concentrations or exposed to UVB irradiation at the indicated doses. […] (FIG. 3C), Pam 212 keratinocytes and XS52 LC were co-cultured at the indicated cell densities and treated for 10 min with PBS alone or with 0.0015% BAC. All data shown in this figure are representative sets of results (mean±SD, n=3) from three independent experiments. * p<0.05; ** p<0.01 (two-tailed Student's t-test).
(§4) ATP and ADP released by endothelial cells and platelets are known to act as pro-inflammatory mediators in the vascular system.

[6] = mouse, in vivo
Description: (§5) FIGS. 4A, 4B, 4C, 4D, 4E, 4F, 4G, & 4H. Irritant contact hypersensitivity responses in CD39-deficient mice. CD39^−/− mice (circles), CD39^+/− mice (triangles) or CD39^+/+ mice (squares) received topical application of 1% croton oil (FIG. 4A), 10% BAC (FIG. 4B), or 30% EPP (FIG. 4C) on the right ear and vehicle alone on the left ear. […] Statistical significant differences compared to the CD39^+/+ mice or to the CD39^+/− mice are indicated by asterisks or sharps, respectively (*^/# p<0.05 and **^/## p<0.01; two-tailed Student's t test). FIG. 4D, Ear skin samples were harvested from CD39^+/+ or CD39^−/− mice 5 days after topical application of vehicle alone or 1% CO and processed to histological analyses after H&E staining (original magnification: ×250). FIG. 4E, CD39^−/− mice (n=6) or C57BL/6 wild-type mice (n=10) (FIG. 4F) received local injections of apyrase on the right ear (closed circles) or PBS alone on the left ear (open circles) before and after topical application of 1% CO on both ears. The data shown are the mean±SEM of the swelling responses (the ear thickness after CO application minus the baseline thickness before application) at the indicated time points. Statistical significant differences (one-tailed Student's t-test) are indicated by asterisks (*p<0.05 and **p<0.01). […]

Pam 212 keratinocytes [7] = assay: ATP and ADP release from Pam 212 keratinocytes after skin irritant chemicals (luciferin-luciferase, pyruvate kinase); format: cell-based, mouse; settings: for ATP and ADP levels in culture supernatants: Pam 212 keratinocytes, 10 min incubation; for ATP release from Pam 212 keratinocytes: in vitro treatment, ATP in culture supernatants
Protocol: as §3
As the amount of ATP is directly proportional to the light emitted, quantification of the emitted light provides a measure of the amount of ATP. […] Cellular ATP release is then measured by: obtaining cells growing in culture; replacing the culture medium with a buffer; adding the ATP releasing agent (chemical irritant or a modulator of an NTPDase-mediated immune response); obtaining a sample of the buffer surrounding the cells after allowing sufficient time for ATP release by the cell in response to the irritant or modulator of an NTPDase-mediated immune response; adding luciferin and luciferase to this buffer; and quantitating the light released using a luminometer. A negative control can comprise obtaining the same reading with no cells; and/or obtaining the same reading with no added ATP releasing agent. The data are then analyzed by comparing to the standard ATP curve. Generally the cells in such assays may be grown in a multi-well format.
Additionally, the release of ADP into culture media can be measured by the pyruvate kinase-mediated conversion to ATP. This enzymatic assay utilizes pyruvate kinase (PK) which catalyzes the following reaction: Phospho(enol)pyruvate+ADP→Pyruvate+ATP
as §4

endothelial cells = settings: soluble apyrase added in the medium; Imai et al., 2000; cited from earlier work
cytotoxic T-cells = settings: cited from earlier work
[8] = Local apyrase injection in croton oil-induced ear swelling; format: in vivo, mouse
Description: as §5

IA+ epidermal cells = assay: LC emigration: surface densities of IA+ epidermal cells after local injection of TNFα; format: in vivo, mouse; settings: CD39+/+ mice; local injection 100 ng/animal, 48 hr
Description: FIGS. 5A, 5B, 5C, 5D, 5E, 5F, 5G, & 5H. Attenuated immune responses in CD39-deficient mice. […] The data shown are the means±s.e.m. (n=10) of the swelling responses. […] (FIG. 5C) Mice received local injection of TNFα and examined for surface densities of IA^+ epidermal cells (means±s.d., n=3). At 24 hr after topical application of FITC, the DLN were examined for the numbers of migratory LC (means±s.d., n=3) (FIG. 5D) localization of FITC^+ migratory LC after counter-staining of the B cell areas with PE-conjugated B220 mAb (FIG. 5E), and for the surface phenotype of FITC^+ migratory LC (FIG. 5F). Closed and open histograms represent the staining profiles with the indicated mAb and control IgG, respectively. Numbers in the parentheses indicate the mean fluorescence intensities (MFI). (FIG. 5G), Migratory LC isolated from OX-painted CD39^−/− mice (circles) or CD39^+/+ mice (squares) were co-cultured with OX-reactive, wild-type T-cells. The data shown are the means±s.d. (n=3) of interferon-γ (IFN-γ) concentrations in the culture supernatants (* P<0.05). (FIG. 5H), Bone marrow-derived DC generated from CD39^−/− mice (circles) or CD39^+/+ mice (squares) were pulsed with TNBS and injected into CD39^+/+ mice. […]
Measurement of DC function. […] Maturational states of migratory LC were assessed by the surface expression of CD86 and CD40 by the FITC^+ populations in DLN. […]

Nc1ncnc2c1ncn2[C@@H]1O[C@H](COP(=O)(O)OP(=O)(O)OP(=O)(O)O)[C@@H](O)[C@H]1O [ATP, adenosine triphosphate]
inflammatory skin responses in CD39−/− mice [1]: markedly elevated inflammatory skin responses
IL-6 secretion in response to ATP (bone marrow-derived DC [2]; CD39+/+ vs CD39−/− DC, 1 mM ATP, 16 hr): CD39^+/+ DC, but not CD39^−/− DC, secreted IL-6
ATP-induced pore formation (lucifer yellow uptake) in CD39−/− DC (bone marrow-derived DC [3]): intact nucleotide responsiveness
ATP concentration that killed DC significantly (bone marrow-derived DC [4]; CD39+/+ DC, 60 min incubation): 2.5 mM
ATP concentration up to which DC were resistant to cytolysis (bone marrow-derived DC [4]; CD39−/− DC, 60 min incubation): up to 10 mM

CCOC(=O)C#Cc1ccccc1 [ethyl phenylpropiolate]
release of lactate dehydrogenase (LDH) (Pam 212 keratinocytes [5]): caused rapid release of lactate dehydrogenase (LDH)
ear swelling responses in CD39−/− mice compared with CD39+/+ mice [6]: amplified significantly
ATP and ADP levels in culture supernatants (Pam 212 keratinocytes [7]): detected at comparable levels
ATP release from Pam 212 keratinocytes (Pam 212 keratinocytes [7]): triggered rapid ATP release in a time- and dose-dependent manner

benzalkonium chloride
release of lactate dehydrogenase (LDH) (Pam 212 keratinocytes [5]): caused rapid release of lactate dehydrogenase (LDH)
ear swelling responses in CD39−/− mice compared with CD39+/+ mice [6]: amplified significantly
ATP and ADP levels in culture supernatants (Pam 212 keratinocytes [7]): detected at comparable levels
ATP release from Pam 212 keratinocytes (Pam 212 keratinocytes [7]): triggered rapid ATP release in a time- and dose-dependent manner

apyrase
inhibition of LPS-induced IL-1 secretion (endothelial cells): can be inhibited
effect on cytolytic capacity of cytotoxic T-cells (cytotoxic T-cells): inhibited partially
effect of apyrase pre-treatment on capacity of CD39−/− DC to secrete IL-6 upon ATP stimulation (bone marrow-derived DC [2]; apyrase 5 U/ml, 10 min before 1 mM ATP): restored
effect of apyrase pre-treatment on susceptibility of CD39−/− DC to ATP-mediated cytolysis (bone marrow-derived DC [4]; apyrase 5 U/ml, 10 min before 2.5 mM ATP): restored their susceptibility to ATP-mediated cytolysis
effect on early phase ear swelling responses to CO in CD39−/− mice ([8]; 0.2U/ear s.c. into ear 10 min before and 1 hr after 1% CO painting): diminished the extent of early phase responses
effect on CO-induced skin inflammation in wild-type C57BL/6 mice ([8]; 0.2U/ear s.c. into ear before and 1 hr after 1% CO painting): further reduced the extent of CO-induced skin inflammation

TNFα
reduction in surface densities of IA+ epidermal cells (IA+ epidermal cells): about 50%
